Values after ≈ are worked out from the molar mass of the structure shown.
Columns and labels:
Format in all cases: cell-based
E. turcicum = test: Mycelial growth inhibition test in vitro (E. turcicum); settings: Exserohilum turcicum; 50 μg/mL, mean ± SD of three replicates; read-out: The Inhibition Rate (%) E. turcicum
B. cinerea = test: Mycelial growth inhibition test in vitro (B. cinerea); settings: Botrytis cinerea; 50 μg/mL, mean ± SD of three replicates; read-out: The Inhibition Rate (%) B. cinerea
Experimental: (§1) The antifungal activity of the target compound was tested by the mycelial growth inhibition rate method. The compounds were detected at a concentration of 50 μg/mL, and carbendazim was used as the positive control. The antifungal activity was carried out according to literature reports. After drilling the mycelium (3 mm), it was inoculated into the PDA medium containing compounds, and the Petri dish was put into the incubator at 25 °C for 12-48 h; then, the colony diameter was measured with 50 index vernier caliper by the cross method, and the data were recorded. […] • A: The average diameter of the blank medium colony. • B: Diameter of mushroom cake (3 mm). • C: The average diameter of the colonies in the medium containing compound.

R. solani = test: microbe, parasite or virus in culture; settings: Rhizoctonia solani, read-out: The Inhibition Rate (%) R. solani
F. graminearum = test: microbe, parasite or virus in culture; settings: Fusarium graminearum; for inhibition at 50 µg/mL: read-out: The Inhibition Rate (%) F. graminearum
C. capsica = test: Mycelial growth inhibition test in vitro (C. capsica); settings: Colletotrichum; 50 μg/mL, mean ± SD of three replicates; read-out: The Inhibition Rate (%) C. capsica
Experimental: as §1, with “compound. […] The PDA medium containing different concentrations of the compound was prepared by the two-fold dilution method, the final concentration of the compound in the medium was adjusted to 0-100.00 μg/mL, and three parallel samples were set for each concentration. […] The toxicity regression equation of the tested compound was obtained, taking the logarithm of compound concentration (lgc) as the independent variable (x) and the probability value of inhibition rate as the dependent variable (y), and the EC50 value of each tested compound was calculated.” for “compound.”

[1] = MTT cytotoxicity evaluation on MCF-7 cells; settings: human, range 0~100 μM
Experimental: (§2) Cells were incubated at 37 °C in an incubator with 5% CO2. Cell viability was determined using the MTT assay. Briefly, MCF-7 cell lines were seeded at 5000–8000 cells/well in 96-well plates. […] Following a continuous 24 h of incubation, the culture medium was replaced by 90 μL fresh culture medium, and 10 μL MTT solution was added.

MCF-7 cell line = test: MTT cytotoxicity evaluation on MCF-7 cells; settings: 100 μM, 24 h
Experimental: as §2

SMILES	inhibition at 50 µg/mL (E. turcicum)	inhibition at 50 µg/mL (B. cinerea)	inhibition at 50 µg/mL (R. solani)	inhibition at 50 µg/mL (F. graminearum)	inhibition at 50 µg/mL (C. capsica)	IC50 at 24 h [1]	EC50 (F. graminearum; read-out: EC50 (μg/mL) F. graminearum)	cell survival rate of MCF-7 cells (MCF-7 cell line)
Clc1ccc(-c2nc(-c3ccccc3)no2)cc1 [Compound 4a, 5-(4-Chlorophenyl)-3-phenyl-1,2,4-oxadiazole]	17.5 ± 2.68%	< 10%	< 10%	19.1 ± 7.15%	–	–	–	–
COc1ccc(-c2nc(-c3ccccc3)no2)cc1OC [Compound 4b, 5-(3,4-Dimethoxyphenyl)-3-phenyl-1,2,4-oxadiazole]	60.4 ± 1.68%	< 10%	18.7 ± 5.82%	23.8 ± 7.22%	< 10%	–	–	–
CC(C)(C)c1ccc(-c2nc(-c3ccccc3)no2)cc1 [Compound 4c, 5-(4-(tert-Butyl)phenyl)-3-phenyl-1,2,4-oxadiazole]	30.1 ± 1.95%	< 10%	10.7 ± 3.54%	33.5 ± 3.88%	< 10%	–	–	–
Oc1cccc(-c2nc(-c3ccccc3)no2)c1 [Compound 4d, 3-(3-Phenyl-1,2,4-oxadiazol-5-yl) phenol]	46.1 ± 0.74%	36.8 ± 9.53%	18.6 ± 2.71%	40.2 ± 1.5%	22.3 ± 2.97%	≥ 100 µM	–	–
Oc1cc(O)cc(-c2nc(-c3ccccc3)no2)c1 [Compound 4e, 5-(3-Phenyl-1,2,4-oxadiazol-5-yl) benzene-1,3-diol]	26.5 ± 3.09%	< 10%	16.6 ± 1.47%	30.1 ± 4.51%	18.8 ± 3.1%	≥ 100 µM	–	–
Oc1cc(-c2nc(-c3ccccc3)no2)cc(O)c1O [Compound 4g, 5-(3-Phenyl-1,2,4-oxadiazol-5-yl) benzene-1,2,3-triol]	38.7 ± 1%	< 10%	39.9 ± 3.44%	56.9 ± 6.74%	47.6 ± 1.05%	–	80.5 µg/mL (≈ 298 µM)	–
FC(F)(F)c1ccc(-c2nc(-c3ccccc3)no2)cc1 [Compound 4h, 3-Phenyl-5-(4-(trifluoromethyl)phenyl)-1,2,4-oxadiazole]	< 10%	< 10%	< 10%	29 ± 8.54%	< 10%	–	–	–
O=[N+]([O-])c1ccc(-c2nc(-c3ccccc3)no2)cc1 [Compound 4i, 5-(4-Nitrophenyl)-3-phenyl-1,2,4-oxadiazole]	< 10%	< 10%	< 10%	< 10%	–	–	–	significant cell proliferation
COc1ccc(-c2noc(-c3ccc(Cl)cc3)n2)cc1 [Compound 4j, 5-(4-Chlorophenyl)-3-(4-methoxyphenyl)-1,2,4-oxadiazole]	< 10%	< 10%	< 10%	< 10%	< 10%	–	–	–
COc1ccc(-c2noc(-c3ccc(OC)c(OC)c3)n2)cc1 [Compound 4k, 5-(3,4-Dimethoxyphenyl)-3-(4-methoxyphenyl)-1,2,4-oxadiazole]	< 10%	< 10%	22.6 ± 8.85%	21.7 ± 2.53%	< 10%	–	–	–
COc1ccc(-c2noc(-c3ccc(Cl)cc3)n2)cc1OC [Compound 4m, 5-(4-Chlorophenyl)-3-(3,4-dimethoxyphenyl)-1,2,4-oxadiazole]	15.2 ± 0.77%	–	11.7 ± 5.11%	< 10%	–	–	–	–
COc1ccc(-c2noc(-c3ccc(C(C)(C)C)cc3)n2)cc1OC [Compound 4n, 5-(4-(tert-Butyl)phenyl)-3-(3,4-dimethoxyphenyl)-1,2,4-oxadiazole]	29.8 ± 1.26%	< 10%	< 10%	< 10%	< 10%	≥ 100 µM	–	–
COc1ccc(-c2noc(-c3cccc(O)c3)n2)cc1OC [Compound 4o, 3-(3-(3,4-Dimethoxyphenyl)-1,2,4-oxadiazol-5-yl)phenol]	28.1 ± 1.65%	< 10%	24.4 ± 1.65%	55.1 ± 2.99%	20.8 ± 0.59%	–	–	–
COc1cc(-c2noc(-c3ccc(Cl)cc3)n2)cc(OC)c1OC [Compound 4s, 5-(4-Chlorophenyl)-3-(3,4,5-trimethoxyphenyl)-1,2,4-oxadiazole]	< 10%	< 10%	< 10%	< 10%	< 10%	–	–	–
COc1ccc(-c2nc(-c3cc(OC)c(OC)c(OC)c3)no2)cc1OC [Compound 4t, 5-(3,4-Dimethoxyphenyl)-3-(3,4,5-trimethoxyphenyl)-1,2,4-oxadiazole]	< 10%	< 10%	< 10%	28.3 ± 2.19%	–	–	–	significant cell proliferation
COc1cc(-c2noc(-c3ccc(C(C)(C)C)cc3)n2)cc(OC)c1OC [Compound 4u, 5-(4-(tert-Butyl)phenyl)-3-(3,4,5-trimethoxyphenyl)-1,2,4-oxadiazole]	< 10%	< 10%	< 10%	< 10%	< 10%	≥ 100 µM	–	–
COc1cc(-c2noc(-c3cccc(O)c3)n2)cc(OC)c1OC [Compound 4v, 3-(3-(3,4,5-Trimethoxyphenyl)-1,2,4-oxadiazol-5-yl) phenol]	15.5 ± 3.53%	< 10%	< 10%	26.1 ± 9.47%	< 10%	–	–	–
COc1ccc(-c2nc(-c3ccc(OC)c(OC)c3)no2)cc1 [Compound 4w, 3-(3,4-Dimethoxyphenyl)-5-(4-methoxyphenyl)-1,2,4-oxadiazole]	< 10%	< 10%	< 10%	< 10%	< 10%	–	–	–
C(=C\c1nc(-c2ccccc2)no1)/c1ccccc1 [Compound 5a, (E)-3-Phenyl-5-styryl-1,2,4-oxadiazole]	21.1 ± 3.85%	< 10%	14.5 ± 6.32%	< 10%	–	–	–	–
COc1cc(/C=C/c2nc(-c3ccccc3)no2)cc(OC)c1OC [Compound 5b, (E)-3-Phenyl-5-(3,4,5-trimethoxystyryl)-1,2,4-oxadiazole]	31.8 ± 1.44%	30.2 ± 6.4%	21.2 ± 2.78%	36.1 ± 1.67%	20.6 ± 4.48%	≥ 100 µM	–	–
Clc1ccc(/C=C/c2nc(-c3ccccc3)no2)cc1 [Compound 5c, (E)-5-(4-Chlorostyryl)-3-phenyl-1,2,4-oxadiazole]	< 10%	< 10%	< 10%	< 10%	–	–	–	significant cell proliferation
COc1ccc(-c2noc(/C=C/c3ccccc3)n2)cc1 [Compound 5d, (E)-3-(4-Methoxyphenyl)-5-styryl-1,2,4-oxadiazole]	19.2 ± 2.39%	21.7 ± 6.82%	< 10%	19 ± 7.4%	–	–	–	–

Source: article PMC12029309, “Synthesis and Antifungal Activity of 1,2,4-Oxadiazole Derivatives” (Molecules, 2025)
